Substitutions are numbered along the chain they refer to. Activity calls are given as the source filed them.
Key:
[1] = biological target: T1, Ubiquitin carboxyl-terminal hydrolase isozyme L3 (Homo sapiens) (UniProt P15374); assay: Inhibition of human UCH-L3 using Ub-AMC as substrate at 1 to 30 uM after 60 mins by fluorometric analysis
T1 sequence (whole entry): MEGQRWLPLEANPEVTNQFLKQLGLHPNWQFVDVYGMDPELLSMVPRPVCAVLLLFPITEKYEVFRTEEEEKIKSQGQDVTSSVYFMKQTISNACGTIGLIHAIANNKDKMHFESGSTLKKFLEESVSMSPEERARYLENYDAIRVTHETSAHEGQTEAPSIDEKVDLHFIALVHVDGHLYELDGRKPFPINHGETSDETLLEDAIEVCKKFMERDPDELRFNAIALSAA

[2] = tested on: T2, Ubiquitin carboxyl-terminal hydrolase 5 (Homo sapiens), P45974 [C335A]; assay: Competitive binding affinity to human USP5 C335A mutant by SDS-PAGE analysis in presence of biotin-DMT
T2 sequence (whole entry): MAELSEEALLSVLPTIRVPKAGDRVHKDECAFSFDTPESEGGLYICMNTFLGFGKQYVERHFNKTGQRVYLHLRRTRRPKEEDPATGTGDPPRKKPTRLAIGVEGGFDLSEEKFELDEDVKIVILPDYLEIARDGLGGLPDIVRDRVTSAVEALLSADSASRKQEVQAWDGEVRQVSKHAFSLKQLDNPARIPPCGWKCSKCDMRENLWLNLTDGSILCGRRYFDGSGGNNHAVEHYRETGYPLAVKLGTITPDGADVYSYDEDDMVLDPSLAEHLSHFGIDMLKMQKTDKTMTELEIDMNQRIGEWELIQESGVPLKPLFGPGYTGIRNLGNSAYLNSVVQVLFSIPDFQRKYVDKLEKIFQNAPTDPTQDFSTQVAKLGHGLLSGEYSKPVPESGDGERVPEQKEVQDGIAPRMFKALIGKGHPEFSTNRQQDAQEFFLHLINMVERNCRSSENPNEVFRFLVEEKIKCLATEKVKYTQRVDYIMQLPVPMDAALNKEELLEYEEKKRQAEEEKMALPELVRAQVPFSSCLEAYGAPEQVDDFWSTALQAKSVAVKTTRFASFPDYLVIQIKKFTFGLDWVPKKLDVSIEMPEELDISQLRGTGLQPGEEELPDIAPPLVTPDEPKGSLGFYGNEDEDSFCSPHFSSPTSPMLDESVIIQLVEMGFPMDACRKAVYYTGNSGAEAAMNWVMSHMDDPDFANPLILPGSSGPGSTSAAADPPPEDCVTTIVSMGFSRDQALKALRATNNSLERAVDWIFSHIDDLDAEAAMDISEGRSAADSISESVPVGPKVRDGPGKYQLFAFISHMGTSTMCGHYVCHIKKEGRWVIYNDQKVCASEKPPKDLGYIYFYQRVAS

[3] = tested on: T3, Ubiquitin carboxyl-terminal hydrolase 5 (Homo sapiens), P45974 [C335A,H818A]; assay: Competitive binding affinity to human USP5 C335A/H818A mutant by SDS-PAGE analysis in presence of biotin-DMT
T3 sequence (whole entry): T2 sequence (whole entry) with H818A

O=C(Cc1ccccc1)Oc1c(OC(=O)Cc2ccccc2)c(-c2ccc(O)cc2)c(O)c(O)c1-c1ccc(O)cc1 [VIALININ A]
inactive: inhibition [1] | Activity [2] | Activity [3]
